Experimental data as given in patent US10479819B2 (priority 2014, dated 2019).

Key:
[1] = target: T1, human GLP-1R (Homo sapiens, UniProt P43220); experiment: In vitro activity on GLP-1R, CRE-luciferase HEK-293 cells; type: cell-based
T1 construct: expressed in transfected cells
How it was run: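 HEK-293 cells stably expressing human GLP-1R or human GCGR with CRE-luciferase reporter, 5000 cells/well in DMEM/10% FBS, exposed to compound. Luminescence read after luciferase reagent; EC50 taken from concentration-response curves.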

[2] = target: T2, human GCGR (Homo sapiens, UniProt P47871); experiment: In vitro activity on GCGR, CRE-luciferase HEK-293 cells; type: cell-based; details: read-out: GCGR (EC50)
T2 construct: expressed in transfected cells
T2 sequence (P47871 26-477): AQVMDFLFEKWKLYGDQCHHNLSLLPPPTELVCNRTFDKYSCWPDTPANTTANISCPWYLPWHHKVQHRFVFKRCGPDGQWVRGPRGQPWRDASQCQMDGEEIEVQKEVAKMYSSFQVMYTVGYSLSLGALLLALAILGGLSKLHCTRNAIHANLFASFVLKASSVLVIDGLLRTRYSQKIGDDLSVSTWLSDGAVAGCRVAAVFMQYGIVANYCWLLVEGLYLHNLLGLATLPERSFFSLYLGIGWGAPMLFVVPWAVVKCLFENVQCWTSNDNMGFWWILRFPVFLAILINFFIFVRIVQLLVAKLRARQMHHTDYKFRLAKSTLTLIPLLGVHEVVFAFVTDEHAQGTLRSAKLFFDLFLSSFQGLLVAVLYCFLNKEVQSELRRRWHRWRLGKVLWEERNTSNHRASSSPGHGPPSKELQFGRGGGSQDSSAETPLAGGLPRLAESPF
Protocol: 5000 of HEK-293 cells, which are used in CRE-luciferase system and express human GCGR or GLP-1R stably, were inoculated into 384 well plates according to […] DMEM/10% FBS media/well. […] After incubation, […] of luciferase reagent was added directly to each plate and mixed gently for 2 minutes. The plates were placed into an Elmer Perkin plate reader for reading. Concentration curve of the compound was made by drawing software Prism 5, and the EC50 value was calculated.

[3] = Pharmacokinetic analysis after IV or SC administration in male CD1 mice; details: mouse, in vivo
Protocol: Pharmacokinetic parameters of the drugs were calculated by methods of model dependence (for data obtained from IV) and model independence (data obtained from SC).

[4] = tested on: male C57B1/6J mice; experiment: Oral glucose tolerance test in male C57B1/6J mice; type: in vivo; details: 250 μg/kg
[5] = tested on: DIO mice; experiment: Body weight reduction in DIO (obese) mice; type: in vivo; details: 250 μg/kg SC daily, day 11 to day 30, DIO mice
Text: Forty 25-week-old DIO mice (Nanjing University model animal research center) were randomly divided into five groups (compound 4, 5, 6, 7, and normal saline group), 8 in each group, having no difference in the basis weight of each group.

T1 sequence (P43220 24-463): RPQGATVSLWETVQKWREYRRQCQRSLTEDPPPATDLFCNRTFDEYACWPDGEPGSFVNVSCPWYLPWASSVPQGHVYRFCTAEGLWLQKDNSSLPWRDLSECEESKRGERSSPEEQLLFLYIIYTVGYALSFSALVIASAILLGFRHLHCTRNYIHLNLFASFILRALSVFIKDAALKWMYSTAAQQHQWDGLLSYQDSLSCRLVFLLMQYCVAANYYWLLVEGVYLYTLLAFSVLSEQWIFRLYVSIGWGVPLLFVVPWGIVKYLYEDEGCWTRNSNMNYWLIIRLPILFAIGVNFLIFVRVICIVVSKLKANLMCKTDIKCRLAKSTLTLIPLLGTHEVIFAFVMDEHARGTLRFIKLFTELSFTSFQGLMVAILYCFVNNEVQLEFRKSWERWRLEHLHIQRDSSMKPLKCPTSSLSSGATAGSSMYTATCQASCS

Work on `CCCCCCCCCCCCCCCC(=O)NCCOCCOCCC(=O)NCCOCCOCCC(=O)NCCCC[C@H](NC(=O)[C@H](CC(=O)O)NC(=O)[C@H](CO)NC(=O)[C@@H](NC(=O)[C@H](Cc1ccccc1)NC(=O)[C@@H](NC(=O)CNC(=O)[C@H](CCC(N)=O)NC(=O)[C@@H](CO)NC(=O)[C@@H](N)Cc1c[nH]cn1)[C@@H](C)O)[C@@H](C)O)C(=O)N[C@@H](CO)C(=O)N[C@@H](CCCCN)C(=O)N[C@@H](Cc1ccc(O)cc1)C(=O)N[C@@H](CC(C)C)C(=O)N[C@@H](CC(=O)O)C(=O)NC(C)(C)C(=O)N[C@@H](CCCNC(=N)N)C(=O)N[C@@H](CCCNC(=N)N)C(=O)N[C@@H](C)C(=O)N[C@@H](CCC(N)=O)C(=O)N[C@@H](CC(=O)O)C(=O)N[C@@H](Cc1ccccc1)C(=O)N[C@H](C(=O)N[C@@H](CCC(N)=O)C(=O)N[C@@H](Cc1c[nH]c2ccccc12)C(=O)N[C@@H](CC(C)C)C(=O)N[C@@H](CCSC)C(=O)N[C@@H](CC(N)=O)C(=O)N[C@H](C(=O)NCC(=O)NCC(=O)N1CCC[C@H]1C(=O)N[C@@H](CO)C(=O)N[C@@H](CO)C(=O)NCC(=O)N[C@@H](C)C(=O)N1CCC[C@H]1C(=O)N1CCC[C@H]1C(=O)N1CCC[C@H]1C(=O)N[C@@H](CO)C(N)=O)[C@@H](C)O)C(C)C` [Compound 5] yielded a GLP-1R/GCGR ([1]; ratio of EC50 GLP-1R to EC50 GCGR) of 0.1, an EC50 ([1]; read-out: GLP-1R (EC50)) of 60 pM and an EC50 [2] of 430 pM. The clinical adverse effect [3] was “no clinical adverse effect”, the Tmax ([3]; iv) was about 12 h and the half-life ([3]; iv) was 4 to 6 h. For the same compound, the peak time ([3]; sc) was “more than 12 hours”, the “AUC of blood glucose in all four OGTT curve periods (0-480 min) compared with carrier (PBS)” value ([4]; P<0.05) was “significantly decreased” and the “effect on oral glucose tolerance” value ([4]; male C57B1/6J mice) was “significantly reduced the oral glucose tolerance”. The weight loss [5] was “about 20%” and the “body weight compared with normal saline group” value ([5]; P<0.05) was “significantly lower”.
